US10176292B2, “STING crystals and modulators” (MEMORIAL SLOAN-KETTERING CANCER CENTER, priority 2013, dated 2019)

Key:
[1] = target: T1, hSTING^group2 (Homo sapiens, UniProt Q86WV6, D237N/G230I/I244V/K224M/L222R/T229N); test: IFN-β luciferase reporter, hSTING^group2; format: cell-based; conditions: 0.18 mM DMXAA (50 μg/ml), 12 hours
T1 construct: Full-length hSTING (wt and substitutions) and mSTING (wt) constructs were used for this cellular assay; expressed in transfected cells; host or cells: 293T
T1 sequence (Q86WV6 whole entry L222R/K224M/T229N/G230I/H232R/D237N/I244V): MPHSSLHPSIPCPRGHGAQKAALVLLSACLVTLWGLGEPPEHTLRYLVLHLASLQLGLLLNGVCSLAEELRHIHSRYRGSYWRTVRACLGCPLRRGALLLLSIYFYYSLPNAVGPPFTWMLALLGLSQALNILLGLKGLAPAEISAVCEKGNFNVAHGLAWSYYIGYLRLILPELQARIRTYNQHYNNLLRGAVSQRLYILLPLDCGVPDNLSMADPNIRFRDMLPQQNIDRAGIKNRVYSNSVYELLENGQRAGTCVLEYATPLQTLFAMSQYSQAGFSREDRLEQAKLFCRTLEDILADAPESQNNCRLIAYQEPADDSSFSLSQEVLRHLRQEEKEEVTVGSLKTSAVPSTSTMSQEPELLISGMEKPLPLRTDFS
Protocol: (§1) Luciferase assays for DMXAA experiments were performed as described above. Briefly, 3×10^4 293T cells were reverse-transfected with STING constructs (5 ng per 96-well) and reporter constructs (50 ng pIFNβ-Gluc, 10 ng pLenti-EF1-Fluc for normalization, 35 ng pMAX-empty as stuffer, delivered with TransIT-LT1, MirusBio, Madison Wis.). […] 12 hours after stimulation with STING-ligands, cells were resuspended in passive lysis buffer and luciferase activity was determined using the respective substrates Coelenterazine and D-Luciferin (PJK, Kleinblittersdorf, Germany). Gaussia Luciferase values were then normalized to constitutive Firefly Luciferase values (resulting in Relative Light Units, RLU).
(§2) Full-length hSTING (wt and substitutions) and mSTING (wt) constructs were used for this cellular assay, and were expressed at moderate levels allowing ligand-dependent activation of IFN-β promoter.

[2] = system: hSTING^group1 (aa 140-379); test: ITC binding, hSTING^group1; conditions: isolated group1 substitutions
[3] = system: hSTING S162A (hSTING^H232 and hSTING^R232 background); format: cell-based, human; conditions: DMXAA in medium, 12 h; hSTING^H232 and hSTING^R232 background
[4] = system: hSTING^group134; test: IFN-β luciferase reporter, hSTING^group134; format: cell-based, human; conditions: 0.18 mM DMXAA; compared with hSTING^group1234
Protocol: as §1, §2

[5] = target: T2, hSTING S162I (Homo sapiens, UniProt Q86WV6, S162I); test: IFN-β luciferase reporter, hSTING S162I; format: cell-based; conditions: 75 μg/ml DMXAA (FIG. 14A)
T2 construct: Full-length hSTING (wt and substitutions) and mSTING (wt) constructs were used for this cellular assay; expressed in transfected cells; host or cells: HEK293T
T2 sequence (Q86WV6 whole entry S162I): as the sequence (Q86WV6 whole entry L222R/K224M/T229N/G230I/H232R/D237N/I244V) above, with S162I, R222L, M224K, N229T, I230G, R232H, N237D, V244I counted along it
Protocol: (§3) Luciferase expression was determined after 12 h. […] Cells were lysed in Passive Lysis Buffer.
as §1

[6] = target: hSTING^S162A/G230I/Q266I (Homo sapiens, UniProt Q86WV6, G230I/H232R/Q266I/S162A); test: CXCL10 ELISA in STING^Gt/Gt BMDCs transduced with hSTING^S162A/G230I/Q266I; format: cell-based; conditions: 50 μg/ml DMXAA, supernatants at 18 h; compared with the other hSTING substituents
Sequence of hSTING^S162A/G230I/Q266I (Q86WV6 whole entry S162A/G230I/H232R/Q266I): as the sequence (Q86WV6 whole entry L222R/K224M/T229N/G230I/H232R/D237N/I244V) above, with S162A, R222L, M224K, N229T, N237D, V244I, Q266I counted along it
Protocol: (§4) The protocol for generation of bone marrow-derived dendritic cells was described before (Dai et al., 2014). […] BMDCs (1×10^6 cells/well) were infected with retroviruses expressing hSTING (wt and various substitution mutants).
(§5) hSTING cDNAs were cloned into pQCXIP-HA vector. In vitro packaging system was used to generate retroviruses according to protocol (Clontech). BMDCs (1×10^6 cells/well) were seeded into 6-well plates and infected with retroviruses. […] CXCL10 protein level was determined by ELISA.
CXCL10 was measured using the BD Opteia human IP-10 ELISA Set according to manufacturer's recommendations. Murine IFN-α was determined by ELISA using antibody RMMA-1 for capture and rabbit-anti-murine IFN-α polyclonal antibody for detection (PBL Interferon Source, Piscataway, N.J.). Dose-response curves were fitted and EC50 values were determined with Graphpad Prism (Graph Pad Software Inc., San Diego, Calif.).

[7] = target: T3, hSTING^S162A/Q266I (Homo sapiens, UniProt Q86WV6, H232R/Q266I/S162A); test: Real-time PCR in STING^Gt/Gt BMDCs transduced with hSTING^S162A/Q266I; format: cell-based; parameters: expressed in transfected cells; host or cells: bone marrow-derived dendritic cells of STING^Gt/Gt mice, retroviral transduction (pQCXIP-HA); conditions: 50 μg/ml DMXAA, 3 hours
T3 sequence (Q86WV6 whole entry S162A/H232R/Q266I): as the sequence (Q86WV6 whole entry L222R/K224M/T229N/G230I/H232R/D237N/I244V) above, with S162A, R222L, M224K, N229T, I230G, N237D, V244I, Q266I counted along it
Protocol: as §4, §5

[8] = target: hSTING^R232 (aa 140-379) (Homo sapiens, UniProt Q86WV6, H232R); test: ITC binding, hSTING^R232 (wt hSTING); conditions: wild-type (wt) hSTING protein
Sequence of hSTING^R232 (aa 140-379) (Q86WV6 140-379 H232R): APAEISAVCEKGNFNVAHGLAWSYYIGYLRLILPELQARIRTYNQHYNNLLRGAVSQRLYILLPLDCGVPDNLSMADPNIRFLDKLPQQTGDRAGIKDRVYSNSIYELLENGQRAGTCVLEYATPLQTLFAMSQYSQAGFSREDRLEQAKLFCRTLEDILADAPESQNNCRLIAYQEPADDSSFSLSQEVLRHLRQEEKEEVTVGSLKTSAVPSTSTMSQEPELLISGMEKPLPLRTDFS

[9] = target: T3, hSTING^S162A/Q266I; test: IFN-β luciferase reporter, hSTING^S162A/Q266I; format: cell-based; parameters: expressed in transfected cells; conditions: dose-response
Protocol: as §1

[10] = target: T4, hSTING Q266V (Homo sapiens, UniProt Q86WV6, H232R/Q266V); test: IFN-β luciferase reporter, hSTING Q266V; format: cell-based; conditions: 0.18 mM DMXAA, 12 hours
T4 construct: Full-length hSTING (wt and substitutions) and mSTING (wt) constructs were used for this cellular assay; expressed in transfected cells; host or cells: 293T
T4 sequence (Q86WV6 whole entry H232R/Q266V): as the sequence (Q86WV6 whole entry L222R/K224M/T229N/G230I/H232R/D237N/I244V) above, with R222L, M224K, N229T, I230G, N237D, V244I, Q266V counted along it
Protocol: as §1

[11] = target: T5, hSTING Q266L (Homo sapiens, UniProt Q86WV6, H232R/Q266L); test: IFN-β luciferase reporter, hSTING Q266L; format: cell-based; conditions: 0.18 mM DMXAA, 12 hours
T5 construct: Full-length hSTING (wt and substitutions) and mSTING (wt) constructs were used for this cellular assay; expressed in transfected cells; host or cells: 293T
T5 sequence (Q86WV6 whole entry H232R/Q266L): as the sequence (Q86WV6 whole entry L222R/K224M/T229N/G230I/H232R/D237N/I244V) above, with R222L, M224K, N229T, I230G, N237D, V244I, Q266L counted along it
Protocol: as §1

[12] = target: T6, hSTING^R232 (Homo sapiens, UniProt Q86WV6, H232R); test: IFN-β luciferase reporter, HEK293T cells with hSTING (hSTING^R232); format: cell-based; conditions: DMXAA added to medium, 12 h
T6 construct: Full-length hSTING (wt and substitutions) and mSTING (wt) constructs were used for this cellular assay; expressed in transfected cells; host or cells: HEK293T
T6 sequence (Q86WV6 whole entry H232R): as the sequence (Q86WV6 whole entry L222R/K224M/T229N/G230I/H232R/D237N/I244V) above, with R222L, M224K, N229T, I230G, N237D, V244I counted along it
Protocol: as §3, §1

[13] = target: T7, hSTING^Q266I (Homo sapiens, UniProt Q86WV6, H232R/Q266I); test: IFN-β luciferase reporter, hSTING Q266I; format: cell-based; conditions: 0.18 mM DMXAA, 12 hours
T7 construct: Full-length hSTING (wt and substitutions) and mSTING (wt) constructs were used for this cellular assay; expressed in transfected cells; host or cells: 293T
T7 sequence (Q86WV6 whole entry H232R/Q266I): as the sequence (Q86WV6 whole entry L222R/K224M/T229N/G230I/H232R/D237N/I244V) above, with R222L, M224K, N229T, I230G, N237D, V244I, Q266I counted along it
Protocol: as §1

[14] = target: T8, hSTING G166S (Homo sapiens, UniProt Q86WV6, G166S/H232R); test: IFN-β luciferase reporter, hSTING G166S; format: cell-based; conditions: 0.18 mM DMXAA, 12 hours
T8 construct: Full-length hSTING (wt and substitutions) and mSTING (wt) constructs were used for this cellular assay; expressed in transfected cells; host or cells: 293T
T8 sequence (Q86WV6 whole entry G166S/H232R): as the sequence (Q86WV6 whole entry L222R/K224M/T229N/G230I/H232R/D237N/I244V) above, with G166S, R222L, M224K, N229T, I230G, N237D, V244I counted along it
Protocol: as §1

[15] = system: hSTING^group3; test: ITC binding, hSTING^group3; conditions: isolated group3 substitutions

For `Cc1ccc2c(=O)c3cccc(CC(=O)O)c3oc2c1C` [DMXAA, 5,6-dimethylxanthenone-4-acetic acid], the “IFN-β luciferase reporter response to DMXAA” value [1] was “showed responsiveness to DMXAA”, the “binding to DMXAA (ITC)” value [2] was “no detectable binding” and the “IFN luciferase reporter response to DMXAA” value [3] was “enabled recognition of DMXAA”. The “IFN-β luciferase reporter response to DMXAA” value [4] was “strongly diminished DMXAA activation”, the “IFN induction by DMXAA” value [5] was “not observed” and the “CXCL10 production (ELISA)” value [6] was “highest level of CXCL10 production”. For the same compound, the “increases in IFN-β mRNA levels” value [7] was 3.1 fold, the “binding to DMXAA (ITC)” value [8] was “no detectable binding” and the “DMXAA-induced IFN-β induction” value [9] was “enhanced DMXAA-induced IFN-β induction similar to mSTING”. For the same compound, the “DMXAA-mediated IFN-β induction” value [10] was “no effects”, the “DMXAA-mediated IFN-β induction” value [11] was “less pronounced gain” and the “IFN-β luciferase reporter response to DMXAA” value [12] was “did not”. The “DMXAA-mediated IFN-β induction” value [13] was “conferred DMXAA sensitivity at a level similar to that observed for the S162A substitution”, the “DMXAA-mediated IFN-β induction” value [14] was “no effects” and the “binding to DMXAA (ITC)” value [15] was “no detectable binding”.
